Data taken from patent US20240299385A1 (ReWind Therapeutics NV, priority 2021, published 2024).

Each compound was assayed against T1, human GPR17 receptor (Homo sapiens, UniProt Q13304) (assay: Calcium mobilization functional assay (Fluo-8, FLIPR TETRA) in HEK-293 hGPR17 (Gα-q assay)). Conditions: antagonism of MDL29,951 (~EC80) induced Ca2+ signal; cell line (HEK-293 hGPR17 or HEK-293 Suchi5 hGPR17) not given.
T1 construct: host or cells: HEK-293
T1 sequence (Q13304 whole entry): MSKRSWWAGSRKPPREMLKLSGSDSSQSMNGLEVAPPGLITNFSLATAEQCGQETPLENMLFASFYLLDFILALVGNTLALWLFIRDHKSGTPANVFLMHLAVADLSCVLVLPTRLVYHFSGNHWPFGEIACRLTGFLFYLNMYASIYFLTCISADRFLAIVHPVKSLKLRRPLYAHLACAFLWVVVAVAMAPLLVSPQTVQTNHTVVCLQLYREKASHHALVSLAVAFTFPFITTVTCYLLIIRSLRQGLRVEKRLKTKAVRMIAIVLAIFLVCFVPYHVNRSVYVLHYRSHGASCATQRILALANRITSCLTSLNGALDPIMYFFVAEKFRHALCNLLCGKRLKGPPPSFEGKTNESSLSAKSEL
Type: cell-based
In short: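 Fluo-8-loaded HEK-293 hGPR17 cells (60 min dye loading, room temperature) were preincubated with compound for twenty minutes, then challenged with agonist MDL29,951 at ~EC80, 500 nM. Intracellular calcium release via Gα-q was recorded as FLIPR fluorescence for a further 2 minutes; compounds tested in duplicate.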
Compound O=S(=O)(Nc1cc(F)c(Br)cc1F)c1c[nH]c(-c2ccccc2F)c1 [Cpd 413, N-(4-bromo-2,5-difluorophenyl)-5-(2-fluorophenyl)-1H-pyrrole-3-sulfonamide] has an IC50 of less than 0.5 µM.
COc1ccc(Cc2c[nH]cc2S(=O)(=O)Nc2ccc(C#N)cc2F)cc1 [Cpd 209, N-(4-cyano-2-fluoro-phenyl)-4-[(4-methoxyphenyl)methyl]-1H-pyrrole-3-sulfonamide] was tested, and the IC50 was 5 to 50 µM.
N#Cc1ccc(NS(=O)(=O)c2c[nH]c(-c3cccn(CC(F)(F)F)c3=O)c2)c(F)c1 [Cpd 614, N-(4-cyano-2-fluorophenyl)-5-[2-oxo-1-(2,2,2-trifluoroethyl)pyridin-3-yl]-1H-pyrrole-3-sulfonamide] gave an IC50 of 5 to 50 µM.
In the case of N#Cc1ccc(NS(=O)(=O)c2c[nH]cc2CC2CCCCC2)c(F)c1 [Cpd 616, N-(4-cyano-2-fluorophenyl)-4-(cyclohexylmethyl)-1H-pyrrole-3-sulfonamide], the IC50 is reported as 0.5 to 5 µM.
With N#Cc1ccc(NS(=O)(=O)c2c[nH]c(-c3ccc(F)s3)c2)c(F)c1 [Cpd 570, N-(4-cyano-2-fluorophenyl)-5-(5-fluorothiophen-2-yl)-1H-pyrrole-3-sulfonamide] the IC50 was less than 0.5 µM.
With COc1ccc(-c2cc(S(=O)(=O)Nc3ccc(C#N)cc3F)c[nH]2)cc1 [Cpd 012, N-(4-cyano-2-fluoro-phenyl)-5-(4-methoxyphenyl)-1H-pyrrole-3-sulfonamide] the IC50 was 5 to 50 µM.
With N#Cc1cccc(-c2cc(S(=O)(=O)Nc3cc(F)c(Br)cc3F)c[nH]2)c1 [Cpd 541, N-(4-bromo-2,5-difluorophenyl)-5-(3-cyanophenyl)-1H-pyrrole-3-sulfonamide] the IC50 was less than 0.5 µM.
With N#Cc1cc(F)c(NS(=O)(=O)c2c[nH]c(-c3ccccc3)c2)cc1F [Cpd 028, N-(4-cyano-2,5-difluoro-phenyl)-5-phenyl-1H-pyrrole-3-sulfonamide] the IC50 was less than 0.5 µM.
O=S(=O)(Nc1cc(F)c(Cl)cc1F)c1c[nH]c(-c2ccccn2)c1 [Cpd 202, N-(4-chloro-2,5-difluoro-phenyl)-5-(2-pyridyl)-1H-pyrrole-3-sulfonamide] showed an IC50 of less than 0.5 µM.
In the case of COc1c(F)cccc1-c1cc(S(=O)(=O)Nc2cc(F)c(OC(F)F)cc2F)c[nH]1 [Cpd 531, N-[4-(difluoromethoxy)-2,5-difluorophenyl]-5-(3-fluoro-2-methoxyphenyl)-1H-pyrrole-3-sulfonamide], the IC50 is reported as less than 0.5 µM.
Compound N#Cc1ccc(NS(=O)(=O)c2c[nH]c(-c3ncccc3C(F)F)c2)c(F)c1 [Cpd 581, N-(4-cyano-2-fluorophenyl)-5-[3-(difluoromethyl)pyridin-2-yl]-1H-pyrrole-3-sulfonamide] has an IC50 of 5 to 50 µM.
Work on Cc1[nH]cc(S(=O)(=O)Nc2ccc(C#N)cc2F)c1Cc1ccccc1 [Cpd 067, 4-benzyl-N-(4-cyano-2-fluorophenyl)-5-methyl-1H-pyrrole-3-sulfonamide] yielded an IC50 of 5 to 50 µM.
COc1cc(CC#N)cnc1NS(=O)(=O)c1c[nH]c(-c2ccccc2)c1 [Cpd 061, N-[5-(cyanomethyl)-3-methoxypyridin-2-yl]-5-phenyl-1H-pyrrole-3-sulfonamide] showed an IC50 of less than 0.5 µM.
Cc1cccc(-c2cc(S(=O)(=O)Nc3cc(F)c(C(F)(F)F)cc3F)c[nH]2)c1 [Cpd 337, N-[2,5-difluoro-4-(trifluoromethyl)phenyl]-5-(m-tolyl)-1H-pyrrole-3-sulfonamide] gave an IC50 of 0.5 to 5 µM.
Compound O=S(=O)(Nc1cc(F)c(C(F)(F)F)cc1F)c1c[nH]c(-c2ncccc2CF)c1 [Cpd 573, N-[2,5-difluoro-4-(trifluoromethyl)phenyl]-5-[3-(fluoromethyl)pyridin-2-yl]-1H-pyrrole-3-sulfonamide] has an IC50 of 0.5 to 5 µM.
Cc1cccc(-c2cc(S(=O)(=O)Nc3ccc(C#N)cc3F)c[nH]2)n1 [Cpd 504, N-(4-cyano-2-fluorophenyl)-5-(6-methylpyridin-2-yl)-1H-pyrrole-3-sulfonamide] showed an IC50 of less than 0.5 µM.
O=S(=O)(Nc1cc(F)c(C(F)(F)F)cc1F)c1c[nH]c(-c2cccc(F)c2F)c1 [Cpd 301, 5-(2,3-difluorophenyl)-N-[2,5-difluoro-4-(trifluoromethyl)phenyl]-1H-pyrrole-3-sulfonamide] showed an IC50 of 0.5 to 5 µM.
N#Cc1ccc(NS(=O)(=O)c2c[nH]c(-c3ccc(C#N)cc3F)c2)c(F)c1 [Cpd 096, N,5-bis(4-cyano-2-fluoro-phenyl)-1H-pyrrole-3-sulfonamide] was tested, and the IC50 was 0.5 to 5 µM.
COc1cccc(Cl)c1-c1cc(S(=O)(=O)Nc2ccc(C#N)cc2F)c[nH]1 [Cpd 265, 5-(2-chloro-6-methoxy-phenyl)-N-(4-cyano-2-fluoro-phenyl)-1H-pyrrole-3-sulfonamide] gave an IC50 of 0.5 to 5 µM.
N#Cc1ccc(NS(=O)(=O)c2c[nH]c(-c3cc(Cl)c(F)cc3F)c2)c(F)c1 [Cpd 507, 5-(5-chloro-2,4-difluorophenyl)-N-(4-cyano-2-fluorophenyl)-1H-pyrrole-3-sulfonamide] was tested, and the IC50 was 0.5 to 5 µM.
O=S(=O)(Nc1cnsc1)c1c[nH]c(-c2ccccc2)c1 [Cpd 591, 5-phenyl-N-(1,2-thiazol-4-yl)-1H-pyrrole-3-sulfonamide] showed an IC50 of 5 to 50 µM.
Cc1ccc(-c2cc(S(=O)(=O)Nc3ccc(C#N)cc3F)c[nH]2)c(F)c1 [Cpd 043, N-(4-cyano-2-fluoro-phenyl)-5-(2-fluoro-4-methyl-phenyl)-1H-pyrrole-3-sulfonamide] showed an IC50 of 0.5 to 5 µM.
Compound Cc1cccnc1-c1cc(S(=O)(=O)Nc2ccc(C#N)cc2F)c[nH]1 [Cpd 348, N-(4-cyano-2-fluoro-phenyl)-5-(3-methyl-2-pyridyl)-1H-pyrrole-3-sulfonamide] has an IC50 of less than 0.5 µM.
O=S(=O)(Nc1cc(F)c(C(F)(F)F)cc1F)c1c[nH]c(-c2nccn2CC(F)(F)F)c1 [Cpd 243, N-[2,5-difluoro-4-(trifluoromethyl)phenyl]-5-[1-(2,2,2-trifluoroethyl)imidazol-2-yl]-1H-pyrrole-3-sulfonamide] was tested, and the IC50 was 5 to 50 µM.
Compound N#CCOc1cc(F)c(NS(=O)(=O)c2c[nH]c(-c3ccc(F)cc3F)c2)cc1F [Cpd 451, N-[4-(cyanomethoxy)-2,5-difluorophenyl]-5-(2,4-difluorophenyl)-1H-pyrrole-3-sulfonamide] has an IC50 of 0.5 to 5 µM.
For O=S(=O)(Nc1cc(F)c(C(F)(F)F)cc1F)c1c[nH]c(-c2cccc(Cl)c2F)c1 [Cpd 327, 5-(3-chloro-2-fluoro-phenyl)-N-[2,5-difluoro-4-(trifluoromethyl)phenyl]-1H-pyrrole-3-sulfonamide], the IC50 was 0.5 to 5 µM.
In the case of N#Cc1ccc(NS(=O)(=O)c2c[nH]c(C3CCCC3)c2)c(F)c1 [Cpd 018, N-(4-cyano-2-fluorophenyl)-5-cyclopentyl-1H-pyrrole-3-sulfonamide], the IC50 is reported as 0.5 to 5 µM.
In the case of O=S(=O)(Nc1cc(F)c(Br)cc1F)c1c[nH]c(-c2cccc3cccnc23)c1 [Cpd 534, N-(4-bromo-2,5-difluorophenyl)-5-quinolin-8-yl-1H-pyrrole-3-sulfonamide], the IC50 is reported as 0.5 to 5 µM.
For Cc1c(S(=O)(=O)Nc2ccc(C#N)cc2F)c[nH]c1-c1ccccc1 [Cpd 033, N-(4-cyano-2-fluoro-phenyl)-4-methyl-5-phenyl-1H-pyrrole-3-sulfonamide], the IC50 was less than 0.5 µM.
Work on N#Cc1ccc(NS(=O)(=O)c2c[nH]c(-c3ccccc3)c2)c(F)c1Cl [Cpd 312, N-(3-chloro-4-cyano-2-fluoro-phenyl)-5-phenyl-1H-pyrrole-3-sulfonamide] yielded an IC50 of 0.5 to 5 µM.
Compound O=S(=O)(Nc1ccc(F)cc1F)c1c[nH]c(-c2ccccn2)c1 [Cpd 122, N-(2,4-difluorophenyl)-5-(2-pyridyl)-1H-pyrrole-3-sulfonamide] has an IC50 of 5 to 50 µM.
Cc1ccc(-c2cc(S(=O)(=O)Nc3ccc(C#N)cc3F)c[nH]2)cc1F [Cpd 264, N-(4-cyano-2-fluoro-phenyl)-5-(3-fluoro-4-methyl-phenyl)-1H-pyrrole-3-sulfonamide] showed an IC50 of 0.5 to 5 µM.
Compound N#CCOc1cc(F)c(NS(=O)(=O)c2c[nH]c(-c3ccccc3)c2F)cc1F [Cpd 632, N-[4-(cyanomethoxy)-2,5-difluorophenyl]-4-fluoro-5-phenyl-1H-pyrrole-3-sulfonamide] has an IC50 of less than 0.5 µM.
N#Cc1cc(F)c(NS(=O)(=O)c2c[nH]c(-c3cccc(Cl)n3)c2)cc1F [Cpd 575, 5-(6-chloropyridin-2-yl)-N-(4-cyano-2,5-difluorophenyl)-1H-pyrrole-3-sulfonamide] was tested, and the IC50 was less than 0.5 µM.
Work on COc1nccc(F)c1-c1cc(S(=O)(=O)Nc2ccc(C#N)cc2F)c[nH]1 [Cpd 089, N-(4-cyano-2-fluoro-phenyl)-5-(4-fluoro-2-methoxy-3-pyridyl)-1H-pyrrole-3-sulfonamide] yielded an IC50 of less than 0.5 µM.
In the case of COc1cc(C(F)(F)F)ccc1NS(=O)(=O)c1c[nH]c(-c2ccccc2)c1 [Cpd 144, N-[2-methoxy-4-(trifluoromethyl)phenyl]-5-phenyl-1H-pyrrole-3-sulfonamide], the IC50 is reported as 5 to 50 µM.
Work on N#Cc1ccc(NS(=O)(=O)c2c[nH]cc2C2CCCC2)c(F)c1 [Cpd 242, N-(4-cyano-2-fluoro-phenyl)-4-cyclopentyl-1H-pyrrole-3-sulfonamide] yielded an IC50 of 5 to 50 µM.
In the case of O=S(=O)(Nc1ccc2ncccc2c1)c1c[nH]c(-c2ccccc2)c1 [Cpd 112, 5-phenyl-N-(6-quinolyl)-1H-pyrrole-3-sulfonamide], the IC50 is reported as 0.5 to 5 µM.
Compound N#Cc1ccc(NS(=O)(=O)c2c[nH]cc2C(=O)c2ccccc2)c(F)c1 [Cpd 195, 4-benzoyl-N-(4-cyano-2-fluoro-phenyl)-1H-pyrrole-3-sulfonamide] has an IC50 of 0.5 to 5 µM.
Compound N#Cc1ccc(NS(=O)(=O)c2c[nH]c(-c3ccccc3C(F)F)c2)c(F)c1 [Cpd 093, N-(4-cyano-2-fluoro-phenyl)-5-[2-(difluoromethyl)phenyl]-1H-pyrrole-3-sulfonamide] has an IC50 of 0.5 to 5 µM.
In the case of N#Cc1ccc(NS(=O)(=O)c2c[nH]cc2-c2ccccn2)c(F)c1 [Cpd 229, N-(4-cyano-2-fluoro-phenyl)-4-(2-pyridyl)-1H-pyrrole-3-sulfonamide], the IC50 is reported as 0.5 to 5 µM.
In the case of Cn1ccnc1-c1cc(S(=O)(=O)Nc2cc(F)c(C(F)(F)F)cc2F)c[nH]1 [Cpd 156, N-[2,5-difluoro-4-(trifluoromethyl)phenyl]-5-(1-methylimidazol-2-yl)-1H-pyrrole-3-sulfonamide], the IC50 is reported as 0.5 to 5 µM.
